Results published in patent US20250296920A1, “FORMULATIONS COMPRISING N-SUBSTITUTED-DIOXOCYCLOBUTENYLAMINO-3-HYDROXY-PICOLINAMIDE COMPOUNDS AND USES THEREOF” (Pfizer Inc., priority 2024, published 2025).
One block for each compound: values may come before it.

What was measured:
[1] = target: T1, CCR6 (Homo sapiens, UniProt P51684); test: CCR6+ T cell chemotaxis assay; format: cell-based
T1 construct: Human CD4+CCR6+CXCR3-T cells were isolated from leukopak from healthy donors; endogenous in cells
T1 sequence (P51684 1-374): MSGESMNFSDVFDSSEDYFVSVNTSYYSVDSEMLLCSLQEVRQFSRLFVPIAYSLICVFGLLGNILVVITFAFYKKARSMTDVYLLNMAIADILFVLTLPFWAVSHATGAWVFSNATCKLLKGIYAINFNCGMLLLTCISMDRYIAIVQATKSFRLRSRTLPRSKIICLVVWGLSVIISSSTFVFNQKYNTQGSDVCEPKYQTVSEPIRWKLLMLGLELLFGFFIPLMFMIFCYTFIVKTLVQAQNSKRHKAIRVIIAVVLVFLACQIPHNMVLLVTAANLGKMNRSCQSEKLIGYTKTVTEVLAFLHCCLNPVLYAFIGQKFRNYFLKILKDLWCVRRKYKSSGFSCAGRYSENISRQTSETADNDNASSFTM
Description: Human CD4+CCR6+CXCR3-T cells were isolated from leukopak from healthy donors using EasySep™ Human Th17 Cell Enrichment Kit. […] Day 4 post activation, Dynabeads were removed from the culture. The activated T cells were maintained at 1-2×10^6 cells/mL for 15 days by feeding fresh growth media when needed.
For IC50 determination, the top and bottom of the chemotaxis chamber contained the same concentration of compound. DMSO was kept constant at 0.1% (v/v) in all wells. The final concentration of CCL20 (Peprotech 300-29A) in the bottom chamber is 0.5 nM. The fully assembled chemotaxis plate was placed in a cell culture incubator at 37° C., 5% CO2 for 1 h. After incubation, the top filter was removed, followed by a quick freeze of the bottom chamber at −80° C. for 1 h. The migrated cells in the bottom chamber were stained with CyQUANT dye (Life Technologies, C7026) for cell number determination.
IC50 values for compounds of the present invention (Table 1a) were determined by the non-linear regression analysis of dose response curves.

[2] = target: T2, CXCR2 (Homo sapiens, UniProt P25025); test: Human neutrophil chemotaxis assay; format: cell-based; conditions: R = H; read-out: CXCR2 Neutrophil, GRO[…] Chemotaxis IC50
T2 construct: Human neutrophils were purified from freshly drawn human whole blood; endogenous in cells; host or cells: primary human neutrophils from freshly drawn whole blood
T2 sequence (P25025 1-360): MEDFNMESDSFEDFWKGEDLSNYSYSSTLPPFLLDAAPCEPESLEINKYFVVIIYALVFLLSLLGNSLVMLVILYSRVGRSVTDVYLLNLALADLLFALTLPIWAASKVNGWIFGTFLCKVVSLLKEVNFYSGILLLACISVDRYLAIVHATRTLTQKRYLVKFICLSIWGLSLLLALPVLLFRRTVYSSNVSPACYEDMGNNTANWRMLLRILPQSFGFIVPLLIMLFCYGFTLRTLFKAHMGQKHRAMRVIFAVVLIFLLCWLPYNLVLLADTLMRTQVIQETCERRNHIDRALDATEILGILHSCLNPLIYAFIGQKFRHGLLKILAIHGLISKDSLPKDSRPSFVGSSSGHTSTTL
Procedure: After 30 min, the labeled neutrophils were washed twice in chemotaxis buffer, resuspended as before and used immediately. For the assay, test compounds were tested in a dose-response format to determine IC50. Labeled neutrophils (50 μL) were pre-incubated with diluted test compound (50 μL) for 30 min in a 96-well plate (Greiner). Next, 100 μL of diluted compound was mixed with 100 μL of GROα (Peprotech #300-11, 2 nM) in the bottom portion of the chemotaxis chamber.
The top portion (insert) of the chemotaxis system containing the FluoroBlok porous membrane was then assembled together. 50 μL of the pre-incubated neutrophils were added to the FluoroBlok insert (top portion) and chemotaxis measured by the neutrophils ability to migrate through the membrane towards the specific CXCR2 ligand, GROα.

Compound: Cc1cn(C)nc1[C@H](Nc1c(Nc2ccnc(C(=O)N(C)C)c2O)c(=O)c1=O)C1(C)CC1 [Example 20, (R)-4-((2-(((1,4-Dimethyl-1H-pyrazol-3-yl)(1-methylcyclopropyl)methyl)amino)-3,4-dioxocyclobut-1-en-1-yl)amino)-3-hydroxy-N,N-dimethylpicolinamide]
T Cell Chemotaxis Selectivity ([1]; T cell chemotaxis compared to neutrophil chemotaxis): NS** (Not selective for T cell chemotaxis compared to neutrophil chemotaxis)

IC50 ([1]; R = H, read-out: CCR6 T cell, CCL20 Chemotaxis IC50): 19.2 nM
IC50 [2]: 42.1 nM
Compound: CN(C)C(=O)c1nccc(Nc2c(N[C@@H](c3ccn(C)n3)C3(C)CCCC3)c(=O)c2=O)c1O [drawing 157 (R = H)]

Compound: Cc1nc([C@H](Nc2c(Nc3ccnc(C(=O)N(C)C)c3O)c(=O)c2=O)C2(C)CCCC2)co1 [drawing 159 (R = H)]
T Cell Chemotaxis Selectivity ([1]; R = H): NS* (Not selective for T cell chemotaxis compared to neutrophil chemotaxis)
